Data published in the supplement of paper PMC10307832.

What was measured:
Experiment in all cases: relative viability (nuclei count vs DMSO), 5 days (fraction); higher = more cells survive
H3255 = test system: H3255
Summary of the method: (§1)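 Each reported value is a median over duplicate plates. It expresses relative viability: treated-well nuclei count divided by vehicle-well nuclei count. Lung cancer cell lines in 1536-well plates were dosed by pin tool a day after seeding, alone with one drug or with a fixed anchor-drug dose plus five library-drug doses (not always all listed) in √10 steps, and nuclei were counted after 5 days.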

RERF-LC-KJ = test system: RERF-LC-KJ
Summary of the method: as §1

HCC-44 = test system: HCC-44
Summary of the method: as §1

NCI-H520 = test system: NCI-H520
Summary of the method: as §1

NCI-H2085 = test system: NCI-H2085
Summary of the method: as §1

NCI-H441 = test system: NCI-H441
Summary of the method: as §1

NCI-H1993 = test system: NCI-H1993
Summary of the method: as §1

PC-14 = test system: PC-14
Summary of the method: as §1

LOU-NH91 = test system: LOU-NH91
Summary of the method: as §1

201T = test system: 201T
Summary of the method: as §1

NCI-H2405 = test system: NCI-H2405
Summary of the method: as §1

NCI-H2347 = test system: NCI-H2347
Summary of the method: as §1

NCI-H647 = test system: NCI-H647
Summary of the method: as §1

NCI-H3122 = test system: NCI-H3122
Summary of the method: as §1

NCI-H2170 = test system: NCI-H2170
Summary of the method: as §1

NCI-H1563 = test system: NCI-H1563
Summary of the method: as §1

NCI-H2023 = test system: NCI-H2023
Summary of the method: as §1

NCI-H1734 = test system: NCI-H1734
Summary of the method: as §1

EPLC-272H = test system: EPLC-272H
Summary of the method: as §1

COR-L23 = test system: COR-L23
Summary of the method: as §1

NCI-H1650 = test system: NCI-H1650
Summary of the method: as §1

NCI-H1793 = test system: NCI-H1793
Summary of the method: as §1

C=C1C(=O)O[C@@H](CCCCCCCC)[C@@H]1C(=O)O [C-75] + CS(=O)(=O)N1CCN(Cc2cc3nc(-c4cccc5[nH]ncc45)nc(N4CCOCC4)c3s2)CC1 [Pictilisib] (partner 1 µM)
relative viability (H3255; first compound 0.08 µM): 0.464
relative viability (H3255; first compound 0.253 µM): 0.572
relative viability (H3255; first compound 0.8 µM): 0.458
relative viability (H3255; first compound 2.53 µM): 0.494
relative viability (H3255; first compound 8 µM): 0.447
relative viability (RERF-LC-KJ; first compound 0.08 µM): 0.564
relative viability (RERF-LC-KJ; first compound 0.253 µM): 0.528
relative viability (RERF-LC-KJ; first compound 0.8 µM): 0.625
relative viability (RERF-LC-KJ; first compound 2.53 µM): 0.537
relative viability (RERF-LC-KJ; first compound 8 µM): 0.533
relative viability (HCC-44; first compound 0.08 µM): 0.65
relative viability (HCC-44; first compound 0.253 µM): 0.599
relative viability (HCC-44; first compound 0.8 µM): 0.558
relative viability (HCC-44; first compound 2.53 µM): 0.622
relative viability (HCC-44; first compound 8 µM): 0.644
relative viability (NCI-H520; first compound 0.08 µM): 0.24
relative viability (NCI-H520; first compound 0.253 µM): 0.357
relative viability (NCI-H520; first compound 0.8 µM): 0.309
relative viability (NCI-H520; first compound 2.53 µM): 0.224
relative viability (NCI-H520; first compound 8 µM): 0.297
relative viability (NCI-H2085; first compound 0.08 µM): 0.504
relative viability (NCI-H2085; first compound 0.253 µM): 0.543
relative viability (NCI-H2085; first compound 0.8 µM): 0.433
relative viability (NCI-H2085; first compound 2.53 µM): 0.339
relative viability (NCI-H2085; first compound 8 µM): 0.413
relative viability (NCI-H441; first compound 0.08 µM): 0.473
relative viability (NCI-H441; first compound 0.253 µM): 0.536
relative viability (NCI-H441; first compound 0.8 µM): 0.403
relative viability (NCI-H441; first compound 2.53 µM): 0.418
relative viability (NCI-H441; first compound 8 µM): 0.38
relative viability (NCI-H1993; first compound 0.08 µM): 0.727
relative viability (NCI-H1993; first compound 0.253 µM): 0.938
relative viability (NCI-H1993; first compound 0.8 µM): 0.842
relative viability (NCI-H1993; first compound 2.53 µM): 0.801
relative viability (NCI-H1993; first compound 8 µM): 0.914
relative viability (PC-14; first compound 0.08 µM): 0.748
relative viability (PC-14; first compound 0.253 µM): 0.997
relative viability (PC-14; first compound 0.8 µM): 0.668
relative viability (PC-14; first compound 2.53 µM): 0.753
relative viability (PC-14; first compound 8 µM): 0.695
relative viability (LOU-NH91; first compound 0.08 µM): 0.555
relative viability (LOU-NH91; first compound 0.253 µM): 0.602
relative viability (LOU-NH91; first compound 0.8 µM): 0.446
relative viability (LOU-NH91; first compound 2.53 µM): 0.406
relative viability (LOU-NH91; first compound 8 µM): 0.461
relative viability (201T; first compound 0.08 µM): 0.697
relative viability (201T; first compound 0.253 µM): 0.782
relative viability (201T; first compound 0.8 µM): 0.628
relative viability (201T; first compound 2.53 µM): 0.673
relative viability (201T; first compound 8 µM): 0.719
relative viability (NCI-H2405; first compound 0.08 µM): 0.471
relative viability (NCI-H2405; first compound 0.253 µM): 0.307
relative viability (NCI-H2405; first compound 0.8 µM): 0.37
relative viability (NCI-H2405; first compound 2.53 µM): 0.408
relative viability (NCI-H2405; first compound 8 µM): 0.391
relative viability (NCI-H2347; first compound 0.08 µM): 0.554
relative viability (NCI-H2347; first compound 0.253 µM): 0.877
relative viability (NCI-H2347; first compound 0.8 µM): 0.31
relative viability (NCI-H2347; first compound 2.53 µM): 0.592
relative viability (NCI-H2347; first compound 8 µM): 0.649
relative viability (NCI-H647; first compound 0.08 µM): 0.449
relative viability (NCI-H647; first compound 0.253 µM): 0.427
relative viability (NCI-H647; first compound 2.53 µM): 0.396
relative viability (NCI-H647; first compound 8 µM): 0.498
relative viability (NCI-H3122; first compound 0.08 µM): 0.635
relative viability (NCI-H3122; first compound 0.253 µM): 0.753
relative viability (NCI-H3122; first compound 0.8 µM): 0.545
relative viability (NCI-H3122; first compound 8 µM): 0.555
relative viability (NCI-H2170; first compound 0.08 µM): 0.355
relative viability (NCI-H2170; first compound 0.253 µM): 0.299
relative viability (NCI-H2170; first compound 0.8 µM): 0.318
relative viability (NCI-H2170; first compound 2.53 µM): 0.274
relative viability (NCI-H2170; first compound 8 µM): 0.272
relative viability (NCI-H1563; first compound 0.08 µM): 0.606
relative viability (NCI-H1563; first compound 0.253 µM): 0.681
relative viability (NCI-H1563; first compound 0.8 µM): 0.737
relative viability (NCI-H1563; first compound 2.53 µM): 0.673
relative viability (NCI-H1563; first compound 8 µM): 0.63
relative viability (NCI-H2023; first compound 0.08 µM): 0.239
relative viability (NCI-H2023; first compound 0.253 µM): 0.29
relative viability (NCI-H2023; first compound 0.8 µM): 0.203
relative viability (NCI-H2023; first compound 2.53 µM): 0.311
relative viability (NCI-H2023; first compound 8 µM): 0.262
relative viability (NCI-H1734; first compound 0.08 µM): 0.435
relative viability (NCI-H1734; first compound 0.253 µM): 0.428
relative viability (NCI-H1734; first compound 0.8 µM): 0.448
relative viability (NCI-H1734; first compound 2.53 µM): 0.384
relative viability (NCI-H1734; first compound 8 µM): 0.367
relative viability (EPLC-272H; first compound 0.08 µM): 0.336
relative viability (EPLC-272H; first compound 0.253 µM): 0.308
relative viability (EPLC-272H; first compound 0.8 µM): 0.298
relative viability (EPLC-272H; first compound 2.53 µM): 0.265
relative viability (EPLC-272H; first compound 8 µM): 0.232
relative viability (COR-L23; first compound 0.08 µM): 0.663
relative viability (COR-L23; first compound 0.253 µM): 0.865
relative viability (COR-L23; first compound 0.8 µM): 0.78
relative viability (COR-L23; first compound 2.53 µM): 0.609
relative viability (COR-L23; first compound 8 µM): 0.693
relative viability (NCI-H1650; first compound 0.08 µM): 0.632
relative viability (NCI-H1650; first compound 0.253 µM): 0.691
relative viability (NCI-H1650; first compound 0.8 µM): 0.521
relative viability (NCI-H1650; first compound 2.53 µM): 0.474
relative viability (NCI-H1650; first compound 8 µM): 0.619
relative viability (NCI-H1793; first compound 0.08 µM): 0.339
relative viability (NCI-H1793; first compound 0.253 µM): 0.359
relative viability (NCI-H1793; first compound 0.8 µM): 0.324
relative viability (NCI-H1793; first compound 2.53 µM): 0.215
relative viability (NCI-H1793; first compound 8 µM): 0.372
